Assay results published in ChEMBL document CHEMBL1139809, “Antinociceptive activity of furan-containing congeners of improgan and ranitidine” (2007).

Tested on: Rattus norvegicus
Experiment: Antinociceptive activity in icv dosed Sprague-Dawley rat assessed as latency to hind lift after 10 mins by hot plate test
Format: functional

SMILES	ED50
CN(C)Cc1ccc(CCCCN)o1	689 nmol
CN(C)Cc1ccc(CCCCNC(=O)c2ccccc2)o1	203 nmol
CN/C(=C/[N+](=O)[O-])NCCCCc1ccc(CN(C)C)o1	111 nmol
CN(C)Cc1ccc(CCCCCCNC(=O)Nc2ccc(I)cc2)o1	>149 nmol
CN(C)Cc1ccc(CCCCNc2ccccc2)o1	131 nmol
CN(C)Cc1ccc(CCCCNC(=O)Nc2ccc(I)cc2)o1	>226 nmol
CN(C)Cc1ccc(CCCCc2ccccc2)o1	143 nmol
CN/C(=N/C#N)NCCCCc1ccc(CN(C)C)o1	159 nmol
CN/C(=C/[N+](=O)[O-])NCCCCCCc1ccc(CN(C)C)o1	25 nmol
CC(=O)NCCCCc1ccc(CN(C)C)o1	126 nmol
CN(C)Cc1ccc(CCCCCCNC(=O)Nc2ccccc2)o1	284 nmol
CN/C(=N/C#N)NCCCCCCc1ccc(CN(C)C)o1	120 nmol
